US12427106B2, “Elastic sheet with function of re-activating endometrial basal layer in uterine cavity and forming method thereof” (YIPURUN (SHANGHAI) BIOTECHNOLOGY CO., LTD., priority 2018, dated 2025)

Columns and labels:
[1] = cited from earlier work
[2] = blood concentration in vivo of New Zealand rabbits after implantation or oral dose
Experimental: New Zealand rabbits within 10 weeks after the implantation. […] The blood concentrations of subjects were measured per 2 weeks, and the trend in vivo matched the release in vitro despite the few of data points. […] New Zealand rabbits within 10 weeks after the implantation. […] The blood concentrations of subjects were measured per 2 weeks, and the trend in vivo matched the release in vitro despite the few of data points. […] It can be seen from the FIG. that the blood concentration in vivo is consistent with the release in vitro trend, thus the treatment in vivo can be adjusted by the release in vitro. The following table gives a comparison of a relationship between the oral dose and the blood concentration in vivo and another relationship between the released drug of the elastic sheet and the blood concentration in vivo: Following table 10 gives a comparison of a relationship between the oral dose and the blood concentration in vivo and another relationship between the released drug of the elastic sheet and the blood concentration in vivo: […]

[3] = blood concentration in vivo of subjects after implantation or oral dose
Experimental: The blood concentrations of subjects were measured per 2 weeks, and the trend in vivo matched the release in vitro despite the few of data points.
It can be seen from the FIG. that the blood concentration in vivo is consistent with the release in vitro trend, thus the treatment in vivo can be adjusted by the release in vitro.
The following table gives a comparison of a relationship between the oral dose and the blood concentration in vivo and another relationship between the released drug of the elastic sheet and the blood concentration in vivo: […]

Blood concentration ([2]; Oral dose 1000 μg/d)	Blood concentration ([2]; Oral dose 2000 μg/d)	Blood concentration ([2]; Oral dose 3000 μg/d)	Blood concentration ([3]; Oral dose 1000 μg/d)	Blood concentration ([3]; Oral dose 2000 μg/d)	Blood concentration ([3]; Oral dose 3000 μg/d)	Blood concentration ([3]; Oral dose 4000 μg/d)	Compound	increase of the serum concentration of estradiol (E2) ([1]; oral administration of 4 mg (2 mg bid))	absorption effect of vaginal administration relative to oral administration ([1]; vaginal versus oral)
–	–	–	–	–	–	–	CCCCC(=O)O[C@H]1CC[C@H]2[C@@H]3CCc4cc(O)ccc4[C@H]3CC[C@]12C [estradiol valerate]	211.89 ± 57.40 pg/mL	4 to 8 times
0.1112 nM	0.2558 nM	0.4985 nM	0.1112 nM	0.2558 nM	0.4985 nM	0.9893 nM	C[C@]12CC[C@@H]3c4ccc(O)cc4CC[C@H]3[C@@H]1CC[C@@H]2O [estradiol]	–	–
